“And” between values parts separate entries of the source, which are not always exact repeats. Equal entries are not always repeated. Where two headings read alike, the source gives them in different places. Marks after values point to notes of the source that are not given here.
What was measured:
B. anthracis NMAT [1] = biological target: T1, B. anthracis NMAT (Bacillus anthracis, UniProt C3L5T6); type: biochemical
B. anthracis NMAT [2] = biological target: T1, B. anthracis NMAT; type: biochemical; remark: listed apart in the source
[3] = system: (His)6-tag B. anthracis NMAT; type: biochemical, Bacillus anthracis
native B. anthracis NMAT [4] = type: biochemical; details: pH 7.5
[5] = system: (His)6-tag B. anthracis NMAT; type: biochemical, Bacillus anthracis; remark: listed apart in the source
native B. anthracis NMAT [6] = type: biochemical, Bacillus anthracis; details: pH 7.5
B. anthracis NMAT [7] = biological target: T1, B. anthracis NMAT; experiment: biochemical; type: binding
B. anthracis NMAT [8] = biological target: T1, B. anthracis NMAT; type: biochemical; remark: listed apart in the source
(His)6-tagged NMAT = (His)6-tagged NMAT (Bacillus anthracis, UniProt C3L5T6)
[9] = read-out: KD2 (dissociation constant, second site), pH 7.5

T1 sequence (C3L5T6 whole entry, looked up): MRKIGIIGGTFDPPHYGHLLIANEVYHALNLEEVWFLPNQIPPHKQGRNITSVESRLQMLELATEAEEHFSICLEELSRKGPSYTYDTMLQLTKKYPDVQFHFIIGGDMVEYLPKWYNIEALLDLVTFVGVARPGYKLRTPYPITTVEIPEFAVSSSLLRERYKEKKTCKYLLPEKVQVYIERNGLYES
Sequence of (His)6-tagged NMAT (C3L5T6 whole entry, looked up): as above

## O=c1ccn([C@@H]2O[C@H](CO[P@@](=O)(O)O[P@@](=O)(O)OP(=O)(O)O)[C@@H](O)[C@H]2O)c(=O)[nH]1 (stereo in doubt) [UTP, uridine triphosphate]
B. anthracis NMAT [1]
  ability to serve as substrate for NMAT in place of ATP: Only CTP and dATP were able to serve as substrates

## Nc1ncnc2c1ncn2[C@@H]1O[C@H](COP(=O)(O)OP(=O)(O)O)[C@@H](O)[C@H]1O [ADP]
B. anthracis NMAT [2]
  ability to activate or inhibit the NMAT reaction: None of these compounds were observed to have an effect
B. anthracis NMAT [1]
  ability to serve as substrate for NMAT in place of ATP: Only CTP and dATP were able to serve as substrates

## Nc1ncnc2c1ncn2[C@@H]1O[C@H](COP(=O)(O)O)[C@@H](O)[C@H]1O [AMP]
B. anthracis NMAT [2]
  ability to activate or inhibit the NMAT reaction: None of these compounds were observed to have an effect
B. anthracis NMAT [1]
  ability to serve as substrate for NMAT in place of ATP: Only CTP and dATP were able to serve as substrates

## Nc1ncnc2c1ncn2[C@@H]1O[C@H](COP(=O)(O)OP(=O)(O)OP(=O)(O)O)[C@@H](O)[C@H]1O [ATP, adenosine triphosphate]
[3]; pH 7.5
  K0.5: 142 ± 28 μM and 142 ± 28 ^c μM and 79 ± 6 ^d μM
Native B. anthracis NMAT [4]
  kcat: 973 ± 120 ^c min^−1 and 702 ± 20 ^d min^−1
  nH (Hill coefficient): 0.621 ± 0.007 ^c
[5]
  difference in K0.5 between the continuous and discontinuous assays: ~4 fold
Native B. anthracis NMAT [6]
  kcat: 1240 ± 111 ^c min^−1 and 864 ± 19 ^d min^−1
  nH (Hill coefficient): 0.661 ± 0.004 ^c
B. anthracis NMAT [7]
  Kd: 215 µM
B. anthracis NMAT [7]; pH 7.5
  ΔH1: ΔH1= −5348 ± 216 cal/mol
  ΔH2: ΔH2= −1.4E4 ± 350 cal/mol
  ΔS1: ΔS1= −1.2 cal/mol*K
  ΔS2: ΔS2= −36 cal/mol*K
B. anthracis NMAT [7]; [9]
  Kd: 3720 µM

## Nc1ccn([C@@H]2O[C@H](COP(=O)(O)OP(=O)(O)O)[C@@H](O)[C@H]2O)c(=O)n1 [CDP, cytidine diphosphate]
B. anthracis NMAT [1]
  ability to serve as substrate for NMAT in place of ATP: Only CTP and dATP were able to serve as substrates

## Nc1ccn([C@@H]2O[C@H](COP(=O)(O)OP(=O)(O)OP(=O)(O)O)[C@@H](O)[C@H]2O)c(=O)n1 [CTP, cytidine triphosphate]
B. anthracis NMAT [1]
  ability to serve as substrate for NMAT in place of ATP: able to serve as substrates

## O=C(CO)COP(=O)(O)O [DHAP, dihydroxyacetone phosphate]
B. anthracis NMAT [2]
  ability to activate or inhibit the NMAT reaction: None of these compounds were observed to have an effect

## Nc1nc2c(ncn2[C@@H]2O[C@H](COP(=O)(O)OP(=O)(O)O)[C@@H](O)[C@H]2O)c(=O)[nH]1 [GDP, guanosine diphosphates]
B. anthracis NMAT [1]
  ability to serve as substrate for NMAT in place of ATP: Only CTP and dATP were able to serve as substrates

## Nc1nc2c(ncn2[C@@H]2O[C@H](COP(=O)(O)OP(=O)(O)OP(=O)(O)O)[C@@H](O)[C@H]2O)c(=O)[nH]1 [GTP, guanosine triphosphate]
B. anthracis NMAT [1]
  ability to serve as substrate for NMAT in place of ATP: Only CTP and dATP were able to serve as substrates

## O=c1[nH]cnc2c1ncn2[C@@H]1O[C@H](COP(=O)(O)OP(=O)(O)O)[C@@H](O)[C@H]1O [IDP, inosine diphosphate]
B. anthracis NMAT [1]
  ability to serve as substrate for NMAT in place of ATP: Only CTP and dATP were able to serve as substrates

## N[C@@H](CC(=O)O)C(=O)O [L-aspartic acid]
B. anthracis NMAT [2]
  ability to activate or inhibit the NMAT reaction: None of these compounds were observed to have an effect

## NC(=O)c1ccc[n+]([C@@H]2O[C@H](COP(=O)([O-])OP(=O)(O)OC[C@H]3O[C@@H](n4cnc5c(N)ncnc54)[C@H](O)[C@@H]3O)[C@@H](O)[C@H]2O)c1 [NAD, nicotinamide adenine dinucleotide]
B. anthracis NMAT [2]
  ability to activate or inhibit the NMAT reaction: None of these compounds were observed to have an effect

## NC(=O)c1ccc[n+]([C@@H]2O[C@H](COP(=O)([O-])O)[C@@H](O)[C@H]2O)c1 [NMN, nicotinamide mononucleotide]
B. anthracis NMAT [2]
  ability to activate or inhibit the NMAT reaction: None of these compounds were observed to have an effect
B. anthracis NMAT [8]
  activity of NMAT with the mononucleotide as substrate: little to no activity

## Nc1ncnc2c1ncn2[C@@H]1O[C@H](COP(=O)(O)OP(=O)(O)OC[C@H]2O[C@@H]([n+]3cccc(C(=O)O)c3)[C@H](O)[C@@H]2O)[C@@H](O)[C@H]1O [NaAD, nicotinate adenine dinucleotide]
B. anthracis NMAT [7]; pH 7.5
  Stoichiometry to monomer: 0.924 ± 0.003
  ΔH: -6.446 ± 0.03 kcal/mol
  ΔS: ΔS=3.5 cal/mol*K
B. anthracis NMAT [7]; read-out: KD (dissociation constant), pH 7.5
  Kd: 3.2 ± 0.8 µM
(His)6-tagged NMAT
  pattern of inhibition by the reaction product, ATP as variable substrate: competitive inhibition
  pattern of inhibition by the reaction product, NaMN as variable substrate: competitive inhibition

## O=C(O)c1ccc[n+]([C@@H]2O[C@H](COP(=O)(O)O)[C@@H](O)[C@H]2O)c1 [NaMN, nicotinate mononucleotide]
Native B. anthracis NMAT [4]
  K0.5: 16 ± 1 ^c μM and 15 ± 1 ^d μM
  kcat: 815 ± 12 ^c min^−1 and 782 ± 7 ^d min^−1
  nH (Hill coefficient): 0.806 ± 0.004 ^c
[5]
  difference in K0.5 between the continuous and discontinuous assays: ~4 fold
Native B. anthracis NMAT [6]
  K0.5: 110 ± 18 ^c μM and 65 ± 5 ^d μM
  kcat: 1059 ± 49 ^c min^−1 and 890 ± 16 ^d min^−1
  nH (Hill coefficient): 0.708 ± 0.004 ^c
B. anthracis NMAT [7]; pH 7.5
  ΔH1: ΔH1= −5385 ± 47 cal/mol
  ΔH2: ΔH2= −3954 ± 183 cal/mol
  ΔS1: ΔS1= −2.4 cal/mol*K
  ΔS2: ΔS2= −3.9 cal/mol*K
B. anthracis NMAT [7]; read-out: KD1 (dissociation constant, first site), pH 7.5
  Kd: 382 µM
B. anthracis NMAT [7]; [9]
  Kd: 9210 µM

## O=P(O)(O)OC[C@H]1O[C@H](OP(=O)(O)OP(=O)(O)O)[C@H](O)[C@@H]1O [PRPP, 5-phospho-ribose-1-pyrophosphate]
B. anthracis NMAT [2]
  ability to activate or inhibit the NMAT reaction: None of these compounds were observed to have an effect

## Cc1cn([C@H]2C[C@H](O)[C@@H](COP(=O)(O)OP(=O)(O)O)O2)c(=O)[nH]c1=O [TDP, thymidine diphosphate]
B. anthracis NMAT [1]
  ability to serve as substrate for NMAT in place of ATP: Only CTP and dATP were able to serve as substrates

## O=c1ccn([C@@H]2O[C@H](COP(=O)(O)OP(=O)(O)O)[C@@H](O)[C@H]2O)c(=O)[nH]1 [UDP, uridine diphosphate]
B. anthracis NMAT [1]
  ability to serve as substrate for NMAT in place of ATP: Only CTP and dATP were able to serve as substrates

## Nc1ncnc2c1ncn2[C@H]1C[C@H](O)[C@@H](COP(=O)(O)OP(=O)(O)OP(=O)(O)O)O1 [dATP, Deoxyadenosine triphosphate]
B. anthracis NMAT [1]
  ability to serve as substrate for NMAT in place of ATP: able to serve as substrates

## OCC(O)CO [glycerol]
[3]
  effect of 10% glycerol on the steady-state kinetic parameters of ATP and NaMN: no significant change in the kinetic parameters

## O=C(O)c1cccnc1C(=O)O [quinolic acid]
B. anthracis NMAT [2]
  ability to activate or inhibit the NMAT reaction: None of these compounds were observed to have an effect

## nicotinamide adenine dinucleotide phosphate [NADP]
B. anthracis NMAT [2]
  ability to activate or inhibit the NMAT reaction: None of these compounds were observed to have an effect

Source: article PMC2654404 (Journal of molecular biology, 2008)
